Measured values reported in US11739070B2, “C5A receptor modulators” (IDORSIA PHARMACEUTICALS LTD, priority 2018, dated 2023).

molecular target: T1, C5AR1 (Homo sapiens, UniProt P21730); assay: hC5a DISCO IC50 assay (PathHunter beta-arrestin, antagonist mode); type: cell-based; conditions: CHO-K1 C5AR1 beta-arrestin cell line; antagonist vs 1-10 nM C5a agonist; geometric mean values; read-out: C5aR IC50
T1 construct: host or cells: CHO-K1
T1 sequence (P21730 1-350): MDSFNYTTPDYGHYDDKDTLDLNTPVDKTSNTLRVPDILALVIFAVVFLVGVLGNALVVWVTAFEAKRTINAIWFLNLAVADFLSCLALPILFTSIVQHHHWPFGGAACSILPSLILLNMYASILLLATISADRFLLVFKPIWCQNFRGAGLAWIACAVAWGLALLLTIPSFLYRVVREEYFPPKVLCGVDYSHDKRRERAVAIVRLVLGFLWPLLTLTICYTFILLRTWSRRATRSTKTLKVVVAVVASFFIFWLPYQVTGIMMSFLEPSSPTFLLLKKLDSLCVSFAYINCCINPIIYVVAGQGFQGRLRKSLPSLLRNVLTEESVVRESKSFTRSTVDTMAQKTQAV
Summary of the method: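 Antagonist added first, then 1-10 nM C5a agonist; cells incubated 1.5 h at 37 °C. Beta-arrestin signal developed with PathHunter detection reagent, 45 min at RT. IC50 in nmol/l from serial antagonist dilutions, reported as geometric mean of several measurements.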

SMILES | IC50
COc1cccc2c1n(Cc1ccccc1C(F)(F)F)c(=O)n2C1CCN(c2ccccc2OCC2CC2)CC1 [Example 240, 1-[1-(2-Cyclopropylmethoxy-phenyl)-piperidin-4-yl]-4-methoxy-3-(2-trifluoromethyl-benzyl)-1,3-dihydro-benzoimidazol-2-one] | 46 nM
COc1cccc2c1n(Cc1ccccc1C(F)(F)F)c(=O)n2C1CCN(c2ccccc2OC2CCC2)CC1 [Example 241, 1-[1-(2-Cyclobutoxy-phenyl)-piperidin-4-yl]-4-methoxy-3-(2-trifluoromethyl-benzyl)-1,3-dihydro-benzoimidazol-2-one] | 36 nM
COc1cccc2c1n(Cc1ccccc1C(F)(F)F)c(=O)n2C1CCN(c2ccccc2OC2COC2)CC1 [Example 242, 4-Methoxy-1-{1-[2-(oxetan-3-yloxy)-phenyl]-piperidin-4-yl}-3-(2-trifluoromethyl-benzyl)-1,3-dihydro-benzoimidazol-2-one] | 74 nM
CCCCOc1ccccc1N1CCC(n2c(=O)n(Cc3ccccc3C(F)(F)F)c3c(OC)cccc32)CC1 [Example 243, 1-[1-(2-Butoxy-phenyl)-piperidin-4-yl]-4-methoxy-3-(2-trifluoromethyl-benzyl)-1,3-dihydro-benzoimidazol-2-one] | 61 nM
COc1cccc2c1n(Cc1ccccc1C(F)(F)F)c(=O)n2C1CCN(c2c(F)ccnc2C)CC1 [Example 244, 1-(4′-Fluoro-2′-methyl-3,4,5,6-tetrahydro-2H-[1,3′]bipyridinyl-4-yl)-4-methoxy-3-(2-trifluoromethyl-benzyl)-1,3-dihydro-benzoimidazol-2-one] | 227 nM
Cc1cccc(F)c1N1CCC(n2c(=O)n(Cc3ccccc3C(F)(F)F)c3c(C)cccc32)CC1 [Example 245, 1-[1-(2-Fluoro-6-methyl-phenyl)-piperidin-4-yl]-4-methyl-3-(2-trifluoromethyl-benzyl)-1,3-dihydro-benzoimidazol-2-one] | 111 nM
COc1cccc2c1n(Cc1ccccc1C(F)(F)F)c(=O)n2C1CCN(c2c(C)ccnc2C#N)CC1 [Example 246, 4-[4-Methoxy-2-oxo-3-(2-trifluoromethyl-benzyl)-2,3-dihydro-benzoimidazol-1-yl]-4′-methyl-3,4,5,6-tetrahydro-2H-[1,3′]bipyridinyl-2′-carbonitrile] | 39 nM
COc1ccnc(C)c1N1CCC(n2c(=O)n(Cc3ccccc3C(F)(F)F)c3c(OC)cccc32)CC1 [Example 247, 4-Methoxy-1-(4′-methoxy-2′-methyl-3,4,5,6-tetrahydro-2H-[1,3′]bipyridinyl-4-yl)-3-(2-trifluoromethyl-benzyl)-1,3-dihydro-benzoimidazol-2-one] | 563 nM
COc1ccnc(OC)c1N1CCC(n2c(=O)n(Cc3ccccc3C(F)(F)F)c3c(OC)cccc32)CC1 [Example 248, 1-(2′,4′-Dimethoxy-3,4,5,6-tetrahydro-2H-[1,3′]bipyridinyl-4-yl)-4-methoxy-3-(2-trifluoromethyl-benzyl)-1,3-dihydro-benzoimidazol-2-one] | 182 nM
COc1ncnc(C)c1N1CCC(n2c(=O)n(Cc3ccccc3C(F)(F)F)c3c(OC)cccc32)CC1 [Example 249, 4-Methoxy-1-[1-(4-methoxy-6-methyl-pyrimidin-5-yl)-piperidin-4-yl]-3-(2-trifluoromethyl-benzyl)-1,3-dihydro-benzoimidazol-2-one] | 273 nM
COc1ncnc(OC)c1N1CCC(n2c(=O)n(Cc3ccccc3C(F)(F)F)c3c(OC)cccc32)CC1 [Example 250, 1-[1-(4,6-Dimethoxy-pyrimidin-5-yl)-piperidin-4-yl]-4-methoxy-3-(2-trifluoromethyl-benzyl)-1,3-dihydro-benzoimidazol-2-one] | 853 nM
